{"source": "patent US5246830A", "about": "“Enzymatic process for the determination of β-lactam antibiotics” (Ucb Bioproducts, S.A., priority 1990, dated 1993)", "assay_type_in_all_cases": "biochemical", "key": {"[1]": {"molecular_target": "T1, enzyme R39 (soluble D-alanyl-D-alanine carboxypeptidase produced by Actinomadura R39) (Actinomadura sp. R39, UniProt P39045)", "T1 construct": "added to milk or serum samples", "T1 sequence (P39045 50-515)": "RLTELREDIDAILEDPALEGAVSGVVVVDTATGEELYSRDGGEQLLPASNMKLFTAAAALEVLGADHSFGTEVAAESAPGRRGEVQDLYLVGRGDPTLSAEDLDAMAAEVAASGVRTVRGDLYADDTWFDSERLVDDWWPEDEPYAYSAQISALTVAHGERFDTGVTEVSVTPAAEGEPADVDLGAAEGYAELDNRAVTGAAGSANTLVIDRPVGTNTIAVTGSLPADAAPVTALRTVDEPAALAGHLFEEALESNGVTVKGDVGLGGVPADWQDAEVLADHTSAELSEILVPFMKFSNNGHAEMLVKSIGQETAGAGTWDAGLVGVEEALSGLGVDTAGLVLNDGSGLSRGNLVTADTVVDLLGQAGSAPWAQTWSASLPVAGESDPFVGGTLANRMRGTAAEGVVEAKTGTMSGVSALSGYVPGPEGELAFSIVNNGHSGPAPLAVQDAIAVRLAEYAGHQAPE", "assay": "Enzymatic determination of penicillin G in milk with 0.4 picomole enzyme R39 (Example 2)", "details": "for Coloration: 0.4 picomole enzyme R39, 10 min + 5 min", "procedure": "(§1) 1.5 picomole of enzyme R39, dissolved in 10 μl of 0.5M Hepes buffer (pH=8.0) containing 0.5M NaCl and 0.25M MgCl2, and 20 μl of an aqueous solution containing 50 mg/ml of D-alanine are added to each sample (control sample+samples containing penicillin G). In the blank sample, enzyme R39 dissolved in Hepes buffer is replaced by 10 μl of 0.5M Hepes buffer (pH=8.0), containing 0.5M NaCl and 0.25M MgCl2 (Hepes=4-hydroxyethyl-1-piperazineethanesulfonic acid). The mixture is incubated at 47° C. for 4 minutes.\n(§2) Next, 5 μl of an aqueous solution containing 5 mg/ml [(N-benzoyl-D-alanyl)thio]-acetic acid and 10 μl of a phosphate buffer solution (pH=8.0; KH2 PO4 +K2 HPO4) containing 2 mg/ml of 5,5'-dithiobis(2-nitrobenzoic) acid are added and the mixture is incubated at 47° C. for 1 minute.\nThe process is exactly the same as in Example 1 except that:\n0.4 picomole of enzyme R39 (instead of 1.5 picomole) is added to the samples;\nthe first incubation lasts 10 minutes (instead of 4 minutes) and\n(§3) the second incubation lasts 5 minutes (instead of 1 minute)."}, "[2]": {"molecular_target": "T1, enzyme R39 (soluble D-alanyl-D-alanine carboxypeptidase produced by Actinomadura R39)", "assay": "Enzymatic determination of penicillin G in 50 μl milk samples, visual coloration (Example 1)", "details": "1.5 picomole enzyme R39, 4 min + 1 min at 47° C.", "procedure": "A series of 50 μl milk samples is prepared containing known concentrations of penicillin G, and two 50 μl milk samples free from penicillin G (blank and control).\nas §1, §2\nThe colorations obtained in the various samples are then observed."}, "[3]": {"molecular_target": "T1, enzyme R39 (soluble D-alanyl-D-alanine carboxypeptidase produced by Actinomadura R39)", "assay": "Enzymatic determination of penicillin G in milk, substrate and reagent combined in a tablet (Example 8)", "details": "substrate + reagent as tablet", "procedure": "The process is the same as in example 3. However, after the first incubation for a period of 10 minutes, a tablet is added which contains, 600 μg of [(N-benzoyl-D-alanyl)thio]-acetic acid and 600 μg of 5,5'-dithiobis(2-nitrobenzoic) acid.\nThis tablet has the following overall composition (in % by weight): […]"}, "[4]": {"molecular_target": "T1, enzyme R39 (soluble D-alanyl-D-alanine carboxypeptidase produced by Actinomadura R39)", "assay": "Enzymatic determination of penicillin G in milk with various D-amino acids or glycine as activators (Example 5)", "procedure": "The process is the same as in example 3, except that the aqueous solution containing 100 mg/ml of D-alanine (test I) is respectively replaced by an aqueous solution containing 100 mg/ml of D-phenylalanine (test II), of D-serine (test III), of D-histidine (test IV), of D-methionine (test V), of D-2-aminobutyric acid (test VI), or by an aqueous solution containing 200 mg/ml of glycine (test VII)."}, "[5]": {"molecular_target": "T1, enzyme R39 (soluble D-alanyl-D-alanine carboxypeptidase produced by Actinomadura R39)", "assay": "Enzymatic determination of penicillin G in serum, spectrophotometer at 410 nm (Example 7)", "parameters": "Optical density (at 410 nm): scale not given here", "details": "for Optical density (at 410 nm): blank subtracted, supernatant diluted 10 times", "procedure": "The procedure of example 3 is followed, but the 3 ml milk samples are replaced by 3 ml serum samples containing known concentrations of penicillin G.\nMoreover, after the second incubation lasting 5 minutes, the samples are centrifuged and the supernatants are diluted 10 times with water.\nThen, the optical density is measured with a spectrophotometer at 410 nm.\nThe values of the optical density mentioned in Table VII are obtained by subtracting the optical density value found for the blank sample from the optical density values found respectively for the control sample and for the other samples."}, "[6]": {"molecular_target": "T1, enzyme R39 (soluble D-alanyl-D-alanine carboxypeptidase produced by Actinomadura R39)", "assay": "Enzymatic determination of penicillin G in 3 ml milk samples (Example 3)", "details": "for Coloration: 24 picomoles enzyme R39, 10 min + 5 min", "procedure": "The process is the same as in Example 1, except that:\nthe samples contain 3 ml of milk (instead of 50 μl);\n24 picomoles (instead of 1.5 picomole) of enzyme R39 dissolved in 150 μl of 0.5M Hepes buffer (pH=8.0) and 600 μl of an aqueous solution containing 100 mg/ml of D-alanine are added to each sample;\nthe first incubation lasts 10 minutes (instead of 4 minutes);\n120 μl (instead of 5 μl) of the aqueous solution of [(N-benzoyl-D-alanyl)thio]-acetic acid and 120 μl of a phosphate buffer solution (pH=8.0) containing 5 mg/ml of 5,5'-dithiobis(2-nitrobenzoic) acid are then added, and\nas §3"}, "[7]": {"molecular_target": "T1, enzyme R39 (soluble D-alanyl-D-alanine carboxypeptidase produced by Actinomadura R39)", "assay": "Enzymatic determination of penicillin G in milk with [(N-phenylacetyl-D-alanyl)thio]-acetic acid as substrate (Example 4)", "details": "substrate [(N-phenylacetyl-D-alanyl)thio]-acetic acid", "procedure": "The process is the same as in example 3, except that, after the first incubation, 120 μl of an aqueous solution containing 5 mg/ml of [(N-phenylacetyl-D-alanyl)thio]-acetic acid are added."}, "[8]": {"details": "penicillin G 0.004 I.U./ml in 50 μl milk"}, "[9]": {"details": "penicillin G 0.008 I.U./ml in 50 μl milk"}, "[10]": {"details": "penicillin G 0.003 I.U./ml in 3 ml milk"}, "[11]": {"details": "penicillin G 0.006 I.U./ml in 3 ml milk"}}}
{"smiles": "CC1(C)S[C@@H]2[C@H](NC(=O)Cc3ccccc3)C(=O)N2[C@H]1C(=O)O", "note": "[penicillin G, benzyl penicillin (penicillin G)]", "values": [{"measurement": "penicillin G concentration in milk detected by reference to a color chart", "setting": "[1]; color chart, 15 minutes", "result": 0.002, "unit": "I.U./ml"}, {"measurement": "Coloration", "setting": "[1]; penicillin G 0.001 I.U./ml in 50 μl milk", "result": "intense yellow"}, {"measurement": "Coloration", "setting": "[1]; penicillin G 0.002 I.U./ml in 50 μl milk", "result": "medium yellow"}, {"measurement": "Coloration", "setting": "[1]; penicillin G 0.003 I.U./ml in 50 μl milk", "result": "pale yellow"}, {"measurement": "Coloration", "setting": "[1]; [8]", "result": "white"}, {"measurement": "Coloration", "setting": "[1]; penicillin G 0.005 I.U./ml in 50 μl milk", "result": "white"}, {"measurement": "Coloration", "setting": "[1]; [9]", "result": "white"}, {"measurement": "Coloration", "setting": "[1]; penicillin G 0.010 I.U./ml in 50 μl milk", "result": "white"}, {"measurement": "Coloration", "setting": "[2]; [8]", "result": "intense yellow"}, {"measurement": "Coloration", "setting": "[2]; [9]", "result": "medium yellow"}, {"measurement": "Coloration", "setting": "[2]; penicillin G 0.012 I.U./ml in 50 μl milk", "result": "pale yellow"}, {"measurement": "Coloration", "setting": "[2]; penicillin G 0.016 I.U./ml in 50 μl milk", "result": "white"}, {"measurement": "Coloration", "setting": "[2]; penicillin G 0.020 I.U./ml in 50 μl milk", "result": "white"}, {"measurement": "Coloration", "setting": "[2]; penicillin G 0.025 I.U./ml in 50 μl milk", "result": "white"}, {"measurement": "Coloration", "setting": "[3]; penicillin G 0.002 (in 1.U.ml) in 3 ml milk", "result": "medium yellow"}, {"measurement": "Coloration", "setting": "[3]; penicillin G 0.003 (in 1.U.ml) in 3 ml milk", "result": "pale yellow"}, {"measurement": "Coloration", "setting": "[3]; penicillin G 0.004 (in 1.U.ml) in 3 ml milk", "result": "white"}, {"measurement": "Coloration", "setting": "[3]; penicillin G 0.006 (in 1.U.ml) in 3 ml milk", "result": "white"}, {"measurement": "Coloration", "setting": "[4]; penicillin G 0.003 I.U./ml in 3 ml milk, test I, activator D-alanine 100 mg/ml", "result": "pale yellow"}, {"measurement": "Coloration", "setting": "[4]; penicillin G 0.003 I.U./ml in 3 ml milk, test II, activator D-phenylalanine 100 mg/ml", "result": "pale yellow"}, {"measurement": "Coloration", "setting": "[4]; penicillin G 0.003 I.U./ml in 3 ml milk, test III, activator D-serine 100 mg/ml", "result": "pale yellow"}, {"measurement": "Coloration", "setting": "[4]; penicillin G 0.003 I.U./ml in 3 ml milk, test IV, activator D-histidine 100 mg/ml", "result": "pale yallow"}, {"measurement": "Coloration", "setting": "[4]; penicillin G 0.003 I.U./ml in 3 ml milk, test V, activator D-methionine 100 mg/ml", "result": "pale yellow"}, {"measurement": "Coloration", "setting": "[4]; penicillin G 0.003 I.U./ml in 3 ml milk, test VI, activator D-2-aminobutyric acid 100 mg/ml", "result": "pale yellow"}, {"measurement": "Coloration", "setting": "[4]; penicillin G 0.003 I.U./ml in 3 ml milk, test VII, activator glycine 200 mg/ml", "result": "pale yellow"}, {"measurement": "Coloration", "setting": "[4]; penicillin G 0.006 I.U./ml in 3 ml milk, test I, activator D-alanine 100 mg/ml", "result": "white"}, {"measurement": "Coloration", "setting": "[4]; penicillin G 0.006 I.U./ml in 3 ml milk, test II, activator D-phenylalanine 100 mg/ml", "result": "white"}, {"measurement": "Coloration", "setting": "[4]; penicillin G 0.006 I.U./ml in 3 ml milk, test III, activator D-serine 100 mg/ml", "result": "white"}, {"measurement": "Coloration", "setting": "[4]; penicillin G 0.006 I.U./ml in 3 ml milk, test IV, activator D-histidine 100 mg/ml", "result": "white"}, {"measurement": "Coloration", "setting": "[4]; penicillin G 0.006 I.U./ml in 3 ml milk, test V, activator D-methionine 100 mg/ml", "result": "white"}, {"measurement": "Coloration", "setting": "[4]; penicillin G 0.006 I.U./ml in 3 ml milk, test VI, activator D-2-aminobutyric acid 100 mg/ml", "result": "white"}, {"measurement": "Coloration", "setting": "[4]; penicillin G 0.006 I.U./ml in 3 ml milk, test VII, activator glycine 200 mg/ml", "result": "white"}, {"measurement": "Optical density (at 410 nm)", "setting": "[5]; penicillin G 0.002 I.U./ml in 3 ml serum", "result": 226}, {"measurement": "Optical density (at 410 nm)", "setting": "[5]; penicillin G 0.003 I.U./ml in 3 ml serum", "result": 175}, {"measurement": "Optical density (at 410 nm)", "setting": "[5]; penicillin G 0.004 I.U./ml in 3 ml serum", "result": 49}, {"measurement": "Optical density (at 410 nm)", "setting": "[5]; penicillin G 0.006 I.U./ml in 3 ml serum", "result": 15}, {"measurement": "penicillin G concentration determined quantitatively with a spectrophotometer", "setting": "[5]; serum", "result": 0.002, "unit": "I.U./ml"}, {"measurement": "penicillin G concentration in milk detected visually in large sample volumes", "setting": "[6]; 3 ml milk, in 15 minutes", "result": 0.004, "unit": "I.U. per ml"}, {"measurement": "Coloration", "setting": "[6]; penicillin G 0.002 I.U./ml in 3 ml milk", "result": "medium yellow"}, {"measurement": "Coloration", "setting": "[6]; [10]", "result": "pale yellow"}, {"measurement": "Coloration", "setting": "[6]; penicillin G 0.004 I.U./ml in 3 ml milk", "result": "white"}, {"measurement": "Coloration", "setting": "[6]; [11]", "result": "white"}, {"measurement": "Coloration", "setting": "[7]; [10]", "result": "pale yellow"}, {"measurement": "Coloration", "setting": "[7]; [11]", "result": "white"}]}
